Legend:
[1] = test system: lysosomal peptidase / purified lysosomal enzymes; assay: hydrolysis under conditions of lysosomal digestion (release of free drug); type: in vitro ADME; settings: for daunorubicine regenerated by the action of lysosomal peptidase: pH 6.0, aminoacid linked to daunorubicine
Excerpt: According to the invention, the arm is of peptidic nature and contains preferably 3 or 4 aminoacids. It is particularly important that the aminoacid being bound to the free amino function of the drug through its carboxylic function, has an asymmetric carbon atom and has the L-configuration because the peptidases or the lysosomal hydrolases only cut the peptidic bonds in the alpha position with respect to an asymmetric carbon. The aminoacid composing the peptidic spacer arm could be selected among the following L-aminoacids: α-aminobutyric acid, γ-aminobutyric acid, ε-aminocaproic acid, arginine, asparagine, aspartic acid, cysteic acid, cysteine, glutamine, glutamic acid, glycine, histidine, 4-hydroxyproline, […]. Of particular interest to play this function is L-leucine. […] In addition, a much higher rate of release of the free drug is obtained when the number of aminoacids making up the peptidic arm increases and may be as high as 78% when the intermediate peptide is made of a sequence of 4 aminoacids. Thus according to the invention, the intermediate "spacer arm" preferably is represented by the sequence

stability in the serum = type: in vitro ADME
Excerpt: According to the invention, the arm is of peptidic nature and contains preferably 3 or 4 aminoacids. It is particularly important that the aminoacid being bound to the free amino function of the drug through its carboxylic function, has an asymmetric carbon atom and has the L-configuration because the peptidases or the lysosomal hydrolases only cut the peptidic bonds in the alpha position with respect to an asymmetric carbon. The aminoacid composing the peptidic spacer arm could be selected among the following L-aminoacids: α-aminobutyric acid, γ-aminobutyric acid, ε-aminocaproic acid, arginine, asparagine, aspartic acid, cysteic acid, cysteine, glutamine, glutamic acid, glycine, histidine, 4-hydroxyproline, […]. Of particular interest to play this function is L-leucine.

L 1210 leukemia cells = assay: in vitro growth inhibition of L 1210 leukemia cells; type: cell-based; settings: 72 hours of culture; concentration near 10 μg/cm^3
Description: Thus the products in which the drug is daunorubicine inhibit in vitro the growth of cancerous cells such as cells of L 1210 leukemia in an appropriate medium. For example, after 72 hours of culture, BSA-succinyl-L-Ala-L-Leu-L-Ala-L-Leu-Daunorubicine at a concentration near 10 μg/cm^3, causes 90% of inhibition of the growth of L 1210 leukemia cells.

L 1210 leukemia = assay: mice inoculated intraperitoneally with L 1210 leukemia, treated by intraperitoneal route; type: in vivo; settings: for activity against L 1210 leukemia in mice compared with daunorubicine or L-leucyl-daunorubicine: i.p. inoculation, i.p. treatment; for activity against L 1210 leukemia in mice compared with daunorubicine or L-leucyl-daunorubicine / toxicity compared with daunorubicine or L-leucyl-daunorubicine: equal doses expressed as daunorubicine; for toxicity compared with daunorubicine or L-leucyl-daunorubicine: mice, i.p.
[2] = 5 mg/kg expressed as daunorubicine, mice with L 1210 leukemia

## COc1cc(NC(C)CCCNC(=O)[C@@H](N)CC(C)C)c2ncccc2c1 (stereo partly drawn) [N-L-leucyl-primaquine]
[1]
  regeneration of the free drug when submitted to lysosomal digestion: regenerate rapidly the free drug
Stability in the serum
  stability in the serum: stable in the serum

## CC[C@H](C)[C@H](N)C(=O)O [L-isoleucine]
[1]
  daunorubicine regenerated by the action of lysosomal peptidase: 60%

## BSA-succinyl-L-Ala-L-Leu-L-Ala-L-Leu-Daunorubicine: succinyl-alanyl-leucyl-alanyl-leucyl-daunorubicine coupled with bovine serum albumin
L 1210 leukemia cells
  inhibition of the growth of L 1210 leukemia cells: 90%
L 1210 leukemia
  activity against L 1210 leukemia in mice compared with daunorubicine or L-leucyl-daunorubicine: markedly better activity than that of daunorubicine or L-leucyl-daunorubicine
  toxicity compared with daunorubicine or L-leucyl-daunorubicine: less toxicity

## COc1cccc2c1C(=O)c1c(O)c3c(c(O)c1C2=O)C[C@@](O)(C(C)=O)C[C@@H]3O[C@H]1C[C@H](NC(=O)[C@@H](N)CC(C)C)[C@H](O)[C@H](C)O1 [N-L-leucyl-daunorubicine]
[1]
  regeneration of the free drug when submitted to lysosomal digestion: regenerate rapidly the free drug
[1]; two hours hydrolysis at pH 4.5, lysosomal digestion
  free daunorubicine released: 65%
[1]; two hours hydrolysis at pH 6.0, lysosomal digestion
  free daunorubicine released: 90%
Stability in the serum
  stability in the serum: stable in the serum

## COc1cccc2c1C(=O)c1c(O)c3c(c(O)c1C2=O)C[C@@](O)(C(=O)CO)C[C@@H]3O[C@H]1C[C@H](NC(=O)[C@@H](N)CC(C)C)[C@H](O)[C@H](C)O1 [N-L-leucyl-doxorubicine]
[1]
  regeneration of the free drug when submitted to lysosomal digestion: regenerate rapidly the free drug
Stability in the serum
  stability in the serum: stable in the serum

## N[C@@H](Cc1ccc(O)cc1)C(=O)O [L-tyrosine]
[1]
  daunorubicine regenerated by the action of lysosomal peptidase: 70%

## COc1cccc2c1C(=O)c1c(O)c3c(c(O)c1C2=O)C[C@@](O)(C(C)=O)C[C@@H]3O[C@H]1C[C@H](N)[C@H](O)[C@H](C)O1 [daunorubicine, reference compound]
L 1210 leukemia; [2]
  increase of life span (ILS): about 7%
L 1210 leukemia; 5 mg/kg, mice with L 1210 leukemia
  toxicity at the dose: already toxic at that dose

## fetuine-succinyl-L-Ala-L-Leu-L-Ala-L-Leu-daunorubicine: succinylated fetuine coupled with L-alanyl-L-leucyl-L-alanyl-L-leucyl-daunorubicine
L 1210 leukemia; [2]
  increase of life span (ILS): ~194%
L 1210 leukemia; 5 mg/kg expressed as daunorubicine, of 10 mice
  surviving mice after 30 days of observation: 8
L 1210 leukemia
  activity against L 1210 leukemia in mice compared with daunorubicine or L-leucyl-daunorubicine: markedly better activity than that of daunorubicine or L-leucyl-daunorubicine
  toxicity compared with daunorubicine or L-leucyl-daunorubicine: less toxicity

From patent US4376765A, “Medicaments, their preparation and compositions containing same” (Institut International de Pathologie Cellulaire et …, priority 1980, dated 1983)
